# Assay results as given in US20060069132A1, “Azolecarboxamide herbicides” (priority 2004, published 2006).
# Legend:
# wild oat = assay: Test B postemergence herbicide test; type: in vivo, Avena fatua; conditions: postemergence, visual rating, scale 0 (no effect) to 100 (complete control)
# Method in brief: (§1)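 Read-out: visual comparison with controls, scored 0 to 100, where 100 means complete control and 0 no effect. Formulated chemicals were applied postemergence to plants 2–18 cm tall (1- to 4-leaf), or to flooded-paddy plants at the 2-leaf stage, then held 13 to 15 days under glass.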
# velvetleaf [1] = assay: Test B pre-/postemergence herbicide test; type: in vivo, Abutilon theophrasti; conditions: for Plant response rating, Velvetleaf: preemergence; for Velvetleaf plant response rating: postemergence, visual rating, scale 0 (no effect) to 100 (complete control)
# Method in brief: (§2)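 Visual rating, 0 (no effect) to 100 (complete control), versus untreated controls after 13–15 d in greenhouse. Pre- and postemergence applications (postemergence plants 2–18 cm, 1–4 leaves); flooded paddy arm at 2-leaf stage. Compounds in non-phytotoxic solvent plus surfactant.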
# barnyardgrass [2] = assay: Test B pre-/postemergence herbicide test; type: in vivo, Echinochloa crus-galli; conditions: for Plant response rating, Barnyardgrass: preemergence; for Barnyardgrass plant response rating: postemergence, visual rating, scale 0 (no effect) to 100 (complete control)
# Method in brief: (§3)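 Seeds were planted and treated preemergence with compounds formulated in a non-phytotoxic solvent mixture containing surfactant, while plants at the 1- to 4-leaf stage (2 to 18 cm) received postemergence sprays. Flooded paddy plants were grown to the 2-leaf stage. After 13 to 15 days in a greenhouse, injury was visually rated 0–100 against untreated controls.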
# morningglory [3] = assay: Test B pre-/postemergence herbicide test; type: in vivo, Ipomoea coccinea; conditions: for Plant response rating, Morningglory: preemergence; for Morningglory plant response rating: postemergence, visual rating, scale 0 (no effect) to 100 (complete control)
# Method in brief: as §3
# [4] = tested on: small flower umbrella sedge; assay: Test B flooded paddy test; type: in vivo, Cyperus difformis; conditions: 1000 g ai/ha, visual rating, scale 0 to 100 (0 no effect, 100 complete control), 13 to 15 days
# Method in brief: (§4)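 Postemergence plants were sprayed with formulated test chemicals at 2 to 18 cm height (1- to 4-leaf stage); paddy species were grown to the 2-leaf stage. After 13 to 15 days in a greenhouse, injury was rated visually against untreated controls on a 0–100 scale (0 = no effect, 100 = complete control).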
# blackgrass = assay: Test B postemergence herbicide test; type: in vivo, Alopecurus myosuroides; conditions: postemergence, visual rating, scale 0 (no effect) to 100 (complete control)
# Method in brief: as §4
# wheat = assay: Test B postemergence herbicide test; type: in vivo, Triticum aestivum; design: key to Wheat plant response rating: 0 = no effect, 100 = complete control; conditions: postemergence, visual rating, scale 0 (no effect) to 100 (complete control)
# Method in brief: as §1
# rice [5] = assay: Test B flooded paddy test; type: in vivo, Oryza sativa; conditions: 1000 g ai/ha, visual rating, scale 0 to 100 (0 no effect, 100 complete control), 13 to 15 days
# Method in brief: as §1
# cocklebur = assay: Test B pre-/postemergence herbicide test; type: in vivo, Xanthium strumarium; conditions: for Plant response rating, Cocklebur: preemergence; for Cocklebur plant response rating: postemergence, visual rating, scale 0 (no effect) to 100 (complete control)
# Method in brief: as §3
# pigweed = assay: Test B pre-/postemergence herbicide test; type: in vivo, Amaranthus retroflexus; conditions: for Plant response rating, Pigweed: preemergence; for Pigweed plant response rating: postemergence, visual rating, scale 0 (no effect) to 100 (complete control)
# Method in brief: as §2
# rice [6] = assay: Test B pre-/postemergence herbicide test; type: in vivo, Oryza sativa; conditions: 500 g ai/ha; visual rating 0-100, 0 no effect, 100 complete control; preemergence
# Method in brief: as §2
# giant foxtail [7] = assay: Test B pre-/postemergence herbicide test; type: in vivo, Setaria faberi; conditions: for Plant response rating, Foxtail, Giant: preemergence; for Foxtail, Giant plant response rating: postemergence, visual rating, scale 0 (no effect) to 100 (complete control)
# Method in brief: as §2
# barnyardgrass [8] = assay: Test A pre-/postemergence herbicide test; type: in vivo, Echinochloa crus-galli
# Method in brief: (§5)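 Greenhouse injury scoring (0–100, complete control = 100) at approximately ten days follows simultaneous pre- and postemergence application. Soil received a directed spray after seeding; seedlings of 2–10 cm at the one- to two-leaf stage were sprayed to runoff.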
# morningglory [9] = assay: Test A pre-/postemergence herbicide test; type: in vivo, Ipomoea spp.
# Method in brief: as §5
# large crabgrass [10] = assay: Test A pre-/postemergence herbicide test; type: in vivo, Digitaria sanguinalis
# Method in brief: as §5
# redroot pigweed = assay: Test A pre-/postemergence herbicide test; type: in vivo, Amaranthus retroflexus
# Method in brief: as §5
# barnyardgrass [11] = assay: Test B flooded paddy test; type: in vivo, Echinochloa crus-galli; conditions: 1000 g ai/ha, visual rating, scale 0 to 100 (0 no effect, 100 complete control), 13 to 15 days
# Method in brief: as §4
# corn = assay: Test B pre-/postemergence herbicide test; type: in vivo, Zea mays; conditions: for Plant response rating, Corn: preemergence; for Corn plant response rating: postemergence, visual rating, scale 0 (no effect) to 100 (complete control)
# Method in brief: as §2
# large crabgrass [12] = assay: Test B pre-/postemergence herbicide test; type: in vivo, Digitaria sanguinalis; conditions: for Plant response rating, Crabgrass, Large: preemergence; for Crabgrass, Large plant response rating: postemergence, visual rating, scale 0 (no effect) to 100 (complete control)
# Method in brief: as §2
# giant foxtail [13] = assay: Test A pre-/postemergence herbicide test; type: in vivo, Setaria faberi
# Method in brief: as §5
# lambsquarters = assay: Test B pre-/postemergence herbicide test; type: in vivo, Chenopodium album; conditions: for Plant response rating, Lambsquarters: preemergence; for Lambsquarters plant response rating: postemergence, visual rating, scale 0 (no effect) to 100 (complete control)
# Method in brief: as §2
# Surinam grass = assay: Test B pre-/postemergence herbicide test; type: in vivo, Urochloa decumbens; conditions: for Plant response rating, Surinam Grass: preemergence; for Surinam Grass plant response rating: postemergence, visual rating, scale 0 (no effect) to 100 (complete control)
# Method in brief: as §2
# ducksalad = assay: Test B flooded paddy test; type: in vivo, Heteranthera limosa; conditions: 1000 g ai/ha, visual rating, scale 0 to 100 (0 no effect, 100 complete control), 13 to 15 days
# Method in brief: as §4
# velvetleaf [14] = assay: Test A pre-/postemergence herbicide test; type: in vivo, Abutilon theophrasti
# Method in brief: as §5
# [15] = 500 g ai/ha, visual rating 0-100, 0 no effect, 100 complete control
# [16] = 125 g ai/ha, 0 to 100 scale, 0 is no effect, 100 is complete control
# [17] = Postemergence, 250 g ai/ha, 0 to 100 scale, 0 no effect, 100 complete control
# [18] = Postemergence, 1000 g ai/ha, 0 to 100 scale, 0 no effect, 100 complete control
# [19] = Preemergence, 1000 g ai/ha, visual rating, 0 to 100 scale (0 no effect, 100 complete control)
# [20] = preemergence, 250 g ai/ha, visual injury, 0 to 100 scale (0 no effect, 100 complete control)
smiles,measurement,setting,value
CC(C)(C)c1cc(C(=O)Nc2cccc(SC(F)(F)F)c2)n(CCF)n1 [Compound 132],"Oat, Wild plant response rating",wild oat; 125 g ai/ha,20
same,"Oat, Wild plant response rating",wild oat; 500 g ai/ha,20
same,"Plant response rating, Velvetleaf",velvetleaf [1]; [15],70
same,Velvetleaf plant response rating,velvetleaf [1]; 125 g ai/ha,60
same,Velvetleaf plant response rating,velvetleaf [1]; 500 g ai/ha,60
same,"Plant response rating, Velvetleaf",velvetleaf [1]; [16],30
same,"Plant response rating, Barnyardgrass",barnyardgrass [2]; [15],50
same,Barnyardgrass plant response rating,barnyardgrass [2]; 125 g ai/ha,50
same,Barnyardgrass plant response rating,barnyardgrass [2]; 500 g ai/ha,60
same,"Plant response rating, Barnyardgrass",barnyardgrass [2]; [16],10
same,"Plant response rating, Morningglory",morningglory [3]; [15],20
same,Morningglory plant response rating,morningglory [3]; 125 g ai/ha,60
same,Morningglory plant response rating,morningglory [3]; 500 g ai/ha,70
same,"Plant response rating, Morningglory",morningglory [3]; [16],10
same,"Sedge, Umbrella plant response rating",[4],40
same,Blackgrass plant response rating,blackgrass; 125 g ai/ha,10
same,Blackgrass plant response rating,blackgrass; 500 g ai/ha,40
same,Wheat plant response rating,wheat; 125 g ai/ha,10
same,Wheat plant response rating,wheat; 500 g ai/ha,20
same,Rice plant response rating,rice [5],0
same,"Plant response rating, Cocklebur",cocklebur; [15],0
same,Cocklebur plant response rating,cocklebur; 125 g ai/ha,90
same,Cocklebur plant response rating,cocklebur; 500 g ai/ha,90
same,"Plant response rating, Cocklebur",cocklebur; [16],0
same,"Plant response rating, Pigweed",pigweed; [15],100
same,Pigweed plant response rating,pigweed; 125 g ai/ha,70
same,Pigweed plant response rating,pigweed; 500 g ai/ha,90
same,"Plant response rating, Pigweed",pigweed; [16],100
same,"Plant response rating, Rice",rice [6],0
same,"Plant response rating, Foxtail, Giant",giant foxtail [7]; [15],80
same,"Foxtail, Giant plant response rating",giant foxtail [7]; 125 g ai/ha,30
same,"Foxtail, Giant plant response rating",giant foxtail [7]; 500 g ai/ha,40
same,"Plant response rating, Foxtail, Giant",giant foxtail [7]; [16],30
same,Barnyardgrass plant response rating,barnyardgrass [8]; [17],20
same,"Plant response rating, Barnyardgrass",barnyardgrass [8]; [18],30
same,Barnyardgrass plant response rating,barnyardgrass [8]; [19],10
same,Barnyardgrass plant response rating,barnyardgrass [8]; [20],0
same,Morningglory plant response rating,morningglory [9]; [17],10
same,"Plant response rating, Morningglory",morningglory [9]; [18],20
same,Morningglory plant response rating,morningglory [9]; [19],10
same,Morningglory plant response rating,morningglory [9]; [20],5
same,"Crabgrass, Large plant response rating",large crabgrass [10]; [17],20
same,"Plant response rating, Crabgrass, Large",large crabgrass [10]; [18],25
same,"Crabgrass, Large plant response rating",large crabgrass [10]; [19],35
same,"Crabgrass, Large plant response rating",large crabgrass [10]; [20],20
same,Pigweed plant response rating,redroot pigweed; [17],75
same,"Plant response rating, Pigweed",redroot pigweed; [18],65
same,Pigweed plant response rating,redroot pigweed; [19],40
same,Pigweed plant response rating,redroot pigweed; [20],30
same,Barnyardgrass plant response rating,barnyardgrass [11],30
same,"Plant response rating, Corn",corn; [15],10
same,Corn plant response rating,corn; 125 g ai/ha,20
same,Corn plant response rating,corn; 500 g ai/ha,20
same,"Plant response rating, Corn",corn; [16],10
same,"Plant response rating, Crabgrass, Large",large crabgrass [12]; [15],100
same,"Crabgrass, Large plant response rating",large crabgrass [12]; 125 g ai/ha,30
same,"Crabgrass, Large plant response rating",large crabgrass [12]; 500 g ai/ha,40
same,"Plant response rating, Crabgrass, Large",large crabgrass [12]; [16],90
same,"Foxtail, Giant plant response rating",giant foxtail [13]; [17],15
same,"Plant response rating, Foxtail, Giant",giant foxtail [13]; [18],20
same,"Foxtail, Giant plant response rating",giant foxtail [13]; [19],40
same,"Foxtail, Giant plant response rating",giant foxtail [13]; [20],25
same,"Plant response rating, Lambsquarters",lambsquarters; [15],90
same,Lambsquarters plant response rating,lambsquarters; 125 g ai/ha,100
same,Lambsquarters plant response rating,lambsquarters; 500 g ai/ha,100
same,"Plant response rating, Lambsquarters",lambsquarters; [16],60
same,"Plant response rating, Surinam Grass",Surinam grass; [15],70
same,Surinam Grass plant response rating,Surinam grass; 125 g ai/ha,40
same,Surinam Grass plant response rating,Surinam grass; 500 g ai/ha,60
same,"Plant response rating, Surinam Grass",Surinam grass; [16],40
same,Ducksalad plant response rating,ducksalad,10
same,Velvetleaf plant response rating,velvetleaf [14]; [17],20
same,"Plant response rating, Velvetleaf",velvetleaf [14]; [18],30
same,Velvetleaf plant response rating,velvetleaf [14]; [19],20
same,Velvetleaf plant response rating,velvetleaf [14]; [20],15
